Test: Hematology in monkeys, 2 mg/kg 30-min IV infusion
Type: in vivo, Cynomolgus monkeys
Method: TH 3423 and TH 3424 were tested in […] naïve monkeys (1 male and one female for each compound at 2 mg/kg) with 30-min intravenous infusion, TK sampling: on Day 1 and Day 15: 0.25, 0.5, 0.75, 1 and 2 hr post infusion initiation. Serum chemistry and hematology: pre-dose (Day 1), day 5, day 8 (pre-dose), day 15 (pre-dose), day 22 and day 28. Clinical observation: Daily during the study, total 35 days. Food consumption: Daily during the study, total 35 days. Bodyweight measurement: Twice weekly for five weeks.

C[C@H](OP(=O)(N1CC1)N1CC1)c1ccc([N+](=O)[O-])c(Oc2cccc(C(=O)N(C)C)c2)c1 (single isomer, unassigned) [TH3424]
abs_lymphs (female, Day 15 (pre-dose)): 2.8e+09 L⁻¹ | abs_monos (female, Day 15 (pre-dose)): 6.2e+08 L⁻¹ | abs_neuts (female, Day 15 (pre-dose)): 1.67e+10 L⁻¹ | % BASO (male, Day 1 (pre-dose)): 0.0% | % EOS (male, Day 1 (pre-dose)): 2.6% | % MONO (male, Day 1 (pre-dose)): 0.1% | % NEUT (male, Day 1 (pre-dose)): 58.4% | HCT (male, Day 1 (pre-dose)): 34.9% | HGB (male, Day 1 (pre-dose)): 117 g/L | LYM (male, Day 1 (pre-dose)): 38.9% | MCH (male, Day 1 (pre-dose)): 25.7 pg | MCHC (male, Day 1 (pre-dose)): 335 g/L | MCV (male, Day 1 (pre-dose)): 76.7 fL | MPV (male, Day 1 (pre-dose)): 11.1 fL | PCT (male, Day 1 (pre-dose)): 0.267% | PDW (male, Day 1 (pre-dose)): 15.5 | PLT (male, Day 1 (pre-dose)): 2.4e+11 L⁻¹ | RBC (male, Day 1 (pre-dose)): 4.55e+12 L⁻¹ | RDW-CV (male, Day 1 (pre-dose)): 11.8% | RDW-SD (male, Day 1 (pre-dose)): 38.1 fL | WBC (male, Day 1 (pre-dose)): 4.71e+09 L⁻¹ | abs_basos (male, Day 1 (pre-dose)): 0 L⁻¹ | abs_eos (male, Day 1 (pre-dose)): 1.2e+08 L⁻¹ | abs_lymphs (male, Day 1 (pre-dose)): 1.84e+09 L⁻¹ | abs_monos (male, Day 1 (pre-dose)): 0 L⁻¹ | abs_neuts (male, Day 1 (pre-dose)): 2.75e+09 L⁻¹ | % BASO (male, Day 8 (pre-dose)): 5.30% | % EOS (male, Day 8 (pre-dose)): 1.10% | % MONO (male, Day 8 (pre-dose)): 13.10% | % NEUT (male, Day 8 (pre-dose)): 34.60% | HCT (male, Day 8 (pre-dose)): 35.20% | HGB (male, Day 8 (pre-dose)): 117.00 g/L | LYM (male, Day 8 (pre-dose)): 45.90% | MCH (male, Day 8 (pre-dose)): 25.50 pg | MCHC (male, Day 8 (pre-dose)): 332.00 g/L | MCV (male, Day 8 (pre-dose)): 76.70 fL | MPV (male, Day 8 (pre-dose)): 10.30 fL | PCT (male, Day 8 (pre-dose)): 0.51% | PDW (male, Day 8 (pre-dose)): 15.30 | PLT (male, Day 8 (pre-dose)): 4.96e+11 L⁻¹ | RBC (male, Day 8 (pre-dose)): 4.59e+12 L⁻¹ | RDW-CV (male, Day 8 (pre-dose)): 11.50% | RDW-SD (male, Day 8 (pre-dose)): 37.20 fL | WBC (male, Day 8 (pre-dose)): 9.15e+09 L⁻¹ | abs_basos (male, Day 8 (pre-dose)): 4.9e+08 L⁻¹ | abs_eos (male, Day 8 (pre-dose)): 1e+08 L⁻¹ | abs_lymphs (male, Day 8 (pre-dose)): 4.19e+09 L⁻¹ | abs_monos (male, Day 8 (pre-dose)): 1.21e+09 L⁻¹ | abs_neuts (male, Day 8 (pre-dose)): 3.16e+09 L⁻¹ | % BASO (male, Day 15 (pre-dose)): 0.10% | % EOS (male, Day 15 (pre-dose)): 3.10% | % MONO (male, Day 15 (pre-dose)): 4.40% | % NEUT (male, Day 15 (pre-dose)): 65.7% | HCT (male, Day 15 (pre-dose)): 37.4% | HGB (male, Day 15 (pre-dose)): 127 g/L | LYM (male, Day 15 (pre-dose)): 26.70% | MCH (male, Day 15 (pre-dose)): 25.3 pg | MCHC (male, Day 15 (pre-dose)): 340 g/L | MCV (male, Day 15 (pre-dose)): 74.5 fL | MPV (male, Day 15 (pre-dose)): 9.5 fL | PCT (male, Day 15 (pre-dose)): 0.593% | PDW (male, Day 15 (pre-dose)): 15.4 | PLT (male, Day 15 (pre-dose)): 6.23e+11 L⁻¹ | RBC (male, Day 15 (pre-dose)): 5.02e+12 L⁻¹ | RDW-CV (male, Day 15 (pre-dose)): 11.5% | RDW-SD (male, Day 15 (pre-dose)): 36.3 fL | WBC (male, Day 15 (pre-dose)): 1.326e+10 L⁻¹ | abs_basos (male, Day 15 (pre-dose)): 2e+07 L⁻¹ | abs_eos (male, Day 15 (pre-dose)): 4.1e+08 L⁻¹ | abs_lymphs (male, Day 15 (pre-dose)): 3.54e+09 L⁻¹ | abs_monos (male, Day 15 (pre-dose)): 5.9e+08 L⁻¹ | abs_neuts (male, Day 15 (pre-dose)): 8.7e+09 L⁻¹

From patent publication US10409869B2, “(R)- and (S)-1-(3-(3-N,N-dimethylaminocarbonyl)phenoxyl-4-nitrophenyl)-1-ethyl-N,N'-bis (ethylene)phosphoramidate, compositions and methods for their use and preparation” (OBI Pharma, Inc., priority 2015, dated 2019)
